Test results taken from patent EP4610269A1, “UROKINASE PLASMINOGEN ACTIVATOR SURFACE RECEPTOR (UPAR) LIGANDS FOR DIAGNOSTIC OR THERAPEUTIC USE” (3B Pharmaceuticals GmbH, priority 2024, dated 2025).
Like-named read-outs stand apart in the source and are kept apart here. *1 amine or outer side, *2 acyl side, *3 side chain or, on linkers, in order; H or OH if unused. Where a SMILES comes first, the peptide text is derived from it. Bridges are numbered along the chain shown (N, C = ends). Side-chain parts run from the residue outwards. [ ]: non-standard residue; d: D form. The star is where a group is joined. X12 = N=c1ccc2c(-c3ccc(C(=O)NCCCOCCOCCOCCCN*)cc3C(=O)O)c3ccc(N)c(S(=O)(=O)O)c3oc-2c1S(=O)(=O)O; DOTA(Lu) = O=C1CN2CCN3CCN(CC(=O)*)CCN(CC2)CC(=O)[O][Lu]([O]1)[O]C(=O)C3; X11 = O=C(CCCC[C@@H]1SC[C@@H]2NC(=O)N[C@@H]21)NCCCOCCOCCOCCCN*; DOTA = O=C(O)CN1CCN(CC(=O)O)CCN(CC(=O)*)CCN(CC(=O)O)CC1; Pro(cis-4-F) = O=C(O)[C@@H]1C[C@H](F)CN1; Dopa = N[C@@H](Cc1ccc(O)c(O)c1)C(=O)O; Hyp = O=C(O)[C@@H]1C[C@@H](O)CN1; Pentanoyl(4-Me) = CC(C)CCC(=O)*; X10 = CC(C)C[C@@H](C(=O)*)N(C)C; Cit = NC(=O)NCCC[C@H](N)C(=O)O; Butoxycarbonyl = CCCCOC(=O)*; NMeK = CN[C@@H](CCCCN)C(=O)O; Phg = N[C@H](C(=O)O)c1ccccc1; Suc = O=C(CCC(=O)[*:2])[*:1]; Nva = CCC[C@H](N)C(=O)O; Pentanoyl = CCCCC(=O)*; Ahx = NCCCCCC(=O)O; βAla = NCCC(=O)O; Sar = CNCC(=O)O

How the values were obtained:
[1] = target: T1, human uPAR (uPAR-Fc) (Homo sapiens, UniProt Q03405); assay: Surface plasmon resonance (SPR) assay, single cycle kinetics; assay type: binding
T1 construct: comprising amino acids Leu23-Arg303 according to UniProt entry Q03405.1; purchased R&D Systems 10378-UK-100
T1 sequence (Q03405 23-303): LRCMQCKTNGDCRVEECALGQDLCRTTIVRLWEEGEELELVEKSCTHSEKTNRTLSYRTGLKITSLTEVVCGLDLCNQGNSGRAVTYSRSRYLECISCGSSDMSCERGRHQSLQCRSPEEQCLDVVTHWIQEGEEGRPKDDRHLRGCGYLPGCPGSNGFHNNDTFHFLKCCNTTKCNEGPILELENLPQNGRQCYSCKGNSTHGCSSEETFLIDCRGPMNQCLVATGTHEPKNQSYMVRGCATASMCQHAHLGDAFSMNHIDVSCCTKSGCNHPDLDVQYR
Protocol: Surface plasmon resonance (SPR) is an optical technique used to measure molecular interactions in real time. SPR occur when plane-polarized light hits a metal film under total internal reflection conditions. SPR signal is directly dependent on the refractive index of the medium on the sensor chip. In an SPR experiment, one molecule (i.e. uPAR) is immobilized on a sensor chip and binding to a second molecule (i.e. test compounds) is measured under flow. The binding of the compound on the surface changes the refractive index. In responses the reflection angle changes as compounds bind and dissociate on the immobilized protein on the surface. This response is measured in resonance units (RU). The RUs are proportional to the number of molecules bound to the surface. […] Kinetic binding constants and equilibrium binding constants can be derived from the sensorgrams.
Surface plasmon resonance (SPR) studies were performed using a Biacore™ T200 or S200 SPR system (Cytiva, formerly GE Life Sciences) to assess binding of compounds to recombinant uPAR protein.
In this example recombinant protein comprising the extracellular domains of human uPAR (uPAR-Fc, R&D Systems, CAT 10378-UK-100, comprising amino acids Leu23-Arg303 according to UniProt entry Q03405.1 and Fc region of human IgG1 at the C-terminus) was immobilized on a Protein A-Chip (Cytiva, CAT 29127555) according to the supplier's instructions. uPAR-Fc was diluted in Running Buffer (10 mM HEPES, 150 mM NaCl, 50 µM EDTA, 0.1% DMSO, 0.05% Tween-20, pH 7.4) to a final concentration of 100 nM and then flushed over the Protein A-Chip to immobilized ~2000 RUs.
Stock solutions of test compounds were prepared by dissolving each compound in DMSO. DMSO stock solution were diluted 1: 1000 in Running Buffer without DMSO. Further sequential dilutions were made with Running Buffer containing 0.1% DMSO. SPR binding analyses were performed in Single Cycle Kinetic (SCK) mode at 25°C. Flow cell without immobilized uPAR-Fc served as reference flow cell. The chip was regenerated with 10 mM Glycine, pH 1,5 to remove the uPAR-Fc from the chip surface after each SCK run. After every three SCK measurements, a blank run with Running Buffer instead of test compound was included to correct for baseline drifts (double reference substraction method). Table 11: SPR protocol steps for SCK with uPAR-Fc immobilized on a Protein A-Chip.
For each test compound, SPR raw data sensorgrams were recorded using the Biacore™ T200 or S200 control software. Sensorgrams were processed and analyzed with the Biacore™ Insight Evaluation software. […] The reference subtracted sensorgram for each test compound was further corrected for baseline drift by subtracting the sensorgram of a reference subtracted blank run (Running Buffer only). The dissociation constant (KD) was calculated from the double reference subtracted sensorgrams using the 1:1 Langmuir binding model. The pKD value (negative decadic logarithm of dissociation constant) was calculated using Microsoft Excel.

[2] = target: T2, uPAR-expressing HEC-265 human endometrial adenocarcinoma cells (Homo sapiens, UniProt Q03405); assay: Competitive FACS binding assay; conditions: pIC50 category of FACS binding
T2 construct: Cell surface uPAR-expressing HEC-265 human endometrial adenocarcinoma cells; host or cells: HEC-265
T2 sequence (Q03405 23-335): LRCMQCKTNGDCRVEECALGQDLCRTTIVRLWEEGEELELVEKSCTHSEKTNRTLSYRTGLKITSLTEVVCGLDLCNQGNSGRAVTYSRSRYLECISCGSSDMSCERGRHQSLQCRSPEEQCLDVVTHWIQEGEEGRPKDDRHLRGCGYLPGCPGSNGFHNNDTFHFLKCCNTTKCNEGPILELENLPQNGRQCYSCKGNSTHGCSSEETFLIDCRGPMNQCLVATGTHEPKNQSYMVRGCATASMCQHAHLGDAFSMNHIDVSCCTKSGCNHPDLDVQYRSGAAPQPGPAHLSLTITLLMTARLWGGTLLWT
Protocol: In order to determine binding of compounds according to the present invention to uPAR-expressing cells, a competitive FACS binding assay was established.
Cell surface uPAR-expressing HEC-265 human endometrial adenocarcinoma cells (Japanese Collection of Research Bioresources, #JCRB1142) were cultured in MEM Eagle with stable glutamine (Pan Biotech, #P04-09500) including 15% fetal bovine serum (Pan Biotech, #P30-3306) and 100 U/ml penicillin and 100 µg/mL streptomycin (Pan Biotech, #P06-07100). Cells were detached with Cell Dissociation Buffer (Thermo Scientific, #13151014) and washed in FACS buffer (PBS (Pan Biotech, #P04-36500) including 1% BSA (SeraCare, #AP-4510-80). Cells were diluted in FACS buffer to a final concentration of 500.000 cells per ml and 200 µl of the cell suspension are transferred to a u-shaped non-binding 96-well plate (Greiner Bio-One, #650901).
For IC50 determination, cells were incubated with 10 nM Bio--Ttds--Ttds--Ttds--Ttds-D-Cha-FsrYLWS-NH2) in the presence of increasing concentrations of non-labeled test compounds at 4°C for 1 hour. Cells were washed twice in FACS buffer. An additional incubation step with 1 µg/mL APC-Streptavidin (Miltenyi; #130-106-791) in 50 µL FACS buffer for 30 minutes on ice was performed followed by two washes with FACS buffer. Cells were resuspended in 200 µl FACS buffer and analyzed in an Attune NxT flow cytometer. Median fluorescence intensities (APC channel) were calculated by Attune NxT software and plotted against peptide concentrations. Four parameter logistic (4PL) curve fitting and pIC50 calculations were performed using ActivityBase software.

[3] = pKD category for uPAR SPR activity assay, uPAR-Fc on Protein A-Chip, 25°C, read-out: pKD CAT (converted)
[4] = pKD category for uPAR SPR activity assay, uPAR-Fc on Protein A-Chip, single cycle kinetics, 25°C, read-out: pKD CAT (converted)

Compound | Kd [1, 3] [nM] | IC50 [2] [nM] | also measured
CCCCOC(=O)N[C@H]1CSSC[C@@H](C(=O)NCCC(=O)O)NC(=O)[C@H](CCC)NC(=O)[C@H]([C@@H](C)CC)NC(=O)[C@@H]2C[C@@H](O)CN2C(=O)[C@@H]2C[C@H](F)CN2C(=O)[C@H](Cc2ccccc2)NC(=O)[C@H](Cc2ccc(O)cc2)NC(=O)[C@H](CCCCNC(=O)CN2CCN(CC(=O)O)CCN(CC(=O)O)CCN(CC(=O)O)CC2)NC(=O)[C@H]([C@@H](C)O)NC1=O [UPAR-127, Butoc-[Cys-Thr-Lys(DOTA)-Tyr-Phe-4Cfp-Hyp-Ile-Nva-Cys]-Bal-OH] (Butoxycarbonyl-CTK(DOTA)YF[Pro(cis-4-F)][Hyp]I[Nva]C[βAla]-OH; disulfide 1-10) | 1.58 to 10 | ≤ 10 | 
CCCCOC(=O)N[C@H]1CSSC[C@@H](C(N)=O)NC(=O)[C@H](CCC)NC(=O)[C@H]([C@@H](C)CC)NC(=O)[C@@H]2C[C@@H](O)CN2C(=O)[C@@H]2C[C@@H](O)CN2C(=O)[C@H](Cc2ccccc2)NC(=O)[C@H](Cc2ccc(O)cc2)NC(=O)[C@H](CCCCNC(=O)CN2CCN(CC(=O)O)CCN(CC(=O)O)CCN(CC(=O)O)CC2)NC(=O)[C@H]([C@@H](C)O)NC1=O [UPAR-128, Butoc-[Cys-Thr-Lys(DOTA)-Tyr-Phe-Hyp-Hyp-Ile-Nva-Cys]-NH2] (Butoxycarbonyl-CTK(DOTA)YF[Hyp][Hyp]I[Nva]C-NH2; disulfide 1-10) | < 1.58 | ≤ 10 | 
CC[C@H](C)[C@@H]1NC(=O)[C@@H](C)NC(=O)[C@@H]2CCCN2C(=O)[C@H](Cc2ccccc2)NC(=O)[C@H](Cc2ccc(O)cc2)NC(=O)[C@H](CCC(N)=O)NC(=O)[C@@H](CCCCNC(=O)CN2CCN(CC(=O)O)CCN(CC(=O)O)CCN(CC(=O)O)CC2)NC(=O)[C@@H](NC(=O)CCC(C)C)CSSC[C@@H](C(N)=O)NC(=O)[C@H](CC(C)C)NC1=O [UPAR-130, iHex-[Cys-lys(DOTA)-Gln-Tyr-Phe-Pro-ala-Ile-Leu-Cys]-NH2] ({Pentanoyl(4-Me)}-C[dK](DOTA)QYFP[dA]ILC-NH2; disulfide 1-10) | > 100 | ≥ 126 | 
CC[C@H](C)[C@@H]1NC(=O)[C@@H](C)NC(=O)[C@@H]2CCCN2C(=O)[C@H](Cc2ccccc2)NC(=O)[C@H](Cc2ccc(O)cc2)NC(=O)[C@H](CCC(N)=O)NC(=O)[C@H](CCCNC(N)=O)NC(=O)[C@@H](NC(=O)CCC(C)C)CSSC[C@@H](C(=O)O)NC(=O)[C@H](CC(C)C)NC1=O [UPAR-131, iHex-[Cys-Cit-Gln-Tyr-Phe-Pro-ala-Ile-Leu-Cys]-OH] ({Pentanoyl(4-Me)}-C[Cit]QYFP[dA]ILC-OH; disulfide 1-10) | > 100 | ≥ 126 | 
CCCCC(=O)N[C@H]1CSSC[C@@H](C(N)=O)NC(=O)[C@H](CCC)NC(=O)[C@H]([C@@H](C)CC)NC(=O)[C@H](CCCCN)N(C)C(=O)[C@@H]2CCCN2C(=O)[C@H](Cc2ccccc2)NC(=O)[C@H](Cc2ccc(O)cc2)NC(=O)[C@H](CCCCNC(=O)CCC(=O)NCCCOCCOCCOCCCNC(=O)CCCC[C@@H]2SC[C@@H]3NC(=O)N[C@@H]32)NC(=O)[C@H](CCCNC(N)=O)NC1=O [UPAR-317, Pent-[Cys-Cit-Lys(Bio-Ttds)-Tyr-Phe-Pro-Nmk-Ile-Nva-Cys]-NH2] (Pentanoyl-C[Cit]K([Suc-X11])YFP[NMeK]I[Nva]C-NH2; disulfide 1-10) | 10 to 100 |  | 
CCCCOC(=O)N[C@H]1CSSC[C@@H](C(N)=O)NC(=O)[C@H](CCC)NC(=O)[C@H]([C@@H](C)CC)NC(=O)[C@@H]2C[C@@H](O)CN2C(=O)[C@@H]2C[C@H](F)CN2C(=O)[C@H](Cc2ccccc2)NC(=O)[C@H](Cc2ccc(O)c(O)c2)NC(=O)[C@H](CCCCNC(=O)CCC(=O)NCCCOCCOCCOCCCNC(=O)c2ccc(-c3c4ccc(=N)c(S(=O)(=O)O)c-4oc4c(S(=O)(=O)O)c(N)ccc34)c(C(=O)O)c2)NC(=O)[C@H]([C@@H](C)O)NC1=O [UPAR-479, Butoc-[Cys-Thr-Lys(AF488-Ttds)-Dopa-Phe-4Cfp-Hyp-Ile-Nva-Cys]-NH2] (Butoxycarbonyl-CTK([Suc-X12])[Dopa]F[Pro(cis-4-F)][Hyp]I[Nva]C-NH2; disulfide 1-10) |  |  | Kd [1]: < 1.58 nM
CCC[C@@H]1NC(=O)[C@H]([C@@H](C)CC)NC(=O)[C@@H]2C[C@@H](O)CN2C(=O)[C@@H]2CCCN2C(=O)[C@H](Cc2ccccc2)NC(=O)[C@H](Cc2ccc(O)cc2)NC(=O)[C@H](CCC(N)=O)NC(=O)[C@H](CCCNC(=N)N)NC(=O)[C@@H](NC(=O)[C@@H](NC(C)=O)c2ccccc2)CSSC[C@@H](C(N)=O)NC1=O [UPAR-486, Ac-Phg-[Cys-Arg-Gln-Tyr-Phe-Pro-Hyp-Ile-Nva-Cys]-NH2] (Ac-[Phg]CRQYFP[Hyp]I[Nva]C-NH2; disulfide 2-11) |  |  | Kd [1, 4]: < 1.58 nM
CCC[C@@H]1NC(=O)[C@H]([C@@H](C)CC)NC(=O)[C@@H]2C[C@@H](O)CN2C(=O)[C@@H]2CCCN2C(=O)[C@H](Cc2ccccc2)NC(=O)[C@H](Cc2ccc(O)cc2)NC(=O)[C@H](CCC(N)=O)NC(=O)[C@H](CCCNC(=N)N)NC(=O)[C@@H](NC(=O)[C@H](CC(C)C)N(C)C)CSSC[C@@H](C(N)=O)NC1=O [UPAR-487, Me-Nml-[Cys-Arg-Gln-Tyr-Phe-Pro-Hyp-Ile-Nva-Cys]-NH2] (X10-CRQYFP[Hyp]I[Nva]C-NH2; disulfide 1-10) |  |  | Kd [1, 4]: 1.58 to 10 nM
CCC[C@@H]1NC(=O)[C@H]([C@@H](C)CC)NC(=O)[C@@H]2C[C@@H](O)CN2C(=O)[C@@H]2CCCN2C(=O)[C@H](Cc2ccccc2)NC(=O)[C@H](Cc2ccc(O)cc2)NC(=O)[C@H](CCC(N)=O)NC(=O)[C@H](CCCNC(=N)N)NC(=O)[C@@H](NC(=O)[C@H](Cc2ccccc2)NC(C)=O)CSSC[C@@H](C(N)=O)NC1=O [UPAR-488, Ac-Phe-[Cys-Arg-Gln-Tyr-Phe-Pro-Hyp-Ile-Nva-Cys]-NH2] (Ac-FCRQYFP[Hyp]I[Nva]C-NH2; disulfide 2-11) |  |  | Kd [1, 4]: < 1.58 nM
LuDOTA-Ahx-Leu-[Cys-Arg-Gln-Tyr-Phe-Pro-ala-Ile-Leu-Cys]-NH2 ({DOTA(Lu)}-[Ahx]LCRQYFP[dA]ILC-NH2; disulfide 3-12; not fully specified; printed as LuDOTA-Ahx-Leu-[Cys-Arg-Gln-Tyr-Phe-Pro-ala-Ile-Leu-Cys]-NH₂; also: Lu(III) complexed by DOTA) [UPAR-170] |  |  | pIC50 CAT [2]: A (pIC50 values ≥8.0)
Pent-[Cys-Cit-Lys(LuDOTA)-Tyr-Phe-Pro-Nmg-Ile-Nva-Cys]-NH2 (Pentanoyl-C[Cit]K(DOTA(Lu))YFP[Sar]I[Nva]C-NH2; disulfide 1-10; not fully specified; also: Lu(III) complexed by DOTA) [UPAR-348] |  |  | pIC50 CAT [2]: A (pIC50 values ≥8.0)
